# Where a name gives a salt, the structure may show the parent alone.
row,melting point [°C],SMILES
1,140 to 141,"CN(C)CCCNC(=O)c1ccc(-c2nnc(CSCCOc3ccc(Cl)cc3Cl)o2)cc1 [Example 44, 4-{5-[2-(2,4-dichlorophenoxy)-ethylsulfanylmethyl]-[1,3,4]-oxadiazol-2-yl}-N-(3-dimethylaminopropyl)-benzamide]"
2,101 to 102,"CN(C)CCCOc1ccc(-c2nnc(CSCCOc3cccc4ccccc34)o2)cc1 [Example 278, [3-(4-{5-[2-(1-naphthoxy)-ethylsulfanylmethyl]-[1,3,4]oxadiazol-2-yl}-phenoxy)-propyl]-dimethyl-amine]"
3,27 to 31,"CCN(CC)CCCOc1ccc(-c2nnc(CSCCOc3ccccc3)o2)cc1 [Example 78, diethyl-(3-{4-[5-(2-phenoxy-ethylsulfanylmethyl)-[1,3,4]oxadiazol-2-yl]-phenoxy}-propyl)-amine]"
4,174 to 176,"c1csc(SCc2nnc(-c3ccc(OCCCN4CCCCC4)cc3)o2)n1 (as salt: hydrochloride) [Example 226, 1-(3-{4-[5-(thiazol-2-ylsulfanylmethyl)-[1,3,4]oxadiazol-2-yl]phenoxy}propyl)piperdine]"
5,69 to 73,"CN(C)CCCOc1ccc(-c2nnc(CSCCCCOc3ccccc3)o2)cc1 [Example 50, dimethyl-(3-{4-[5-(4-phenoxybutylsulfanylmethyl)-[1,3,4]oxadiazol-2-yl]-phenoxy}-propyl)-amine]"
6,149 to 150,"CN1CCC(Oc2ccc(-c3nnc(CSCCOc4ccccc4)o3)cc2)CC1.O=C(O)/C=C\C(=O)O [Example 291, 1-methyl-4-{4-[5-(2-phenoxy-ethylsulfanylmethyl)-[1,3,4]oxadiazol-2-yl]-phenoxy}-piperidine; maleic acid salt]"
7,77 to 80,"CN(C)CCCNC(=O)c1ccc(-c2nnc(CSCCCOc3ccccc3)o2)cc1 [Example 47, N-(3-dimethylaminopropyl)-4-[5-(3-phenoxypropylsulfanylmethyl)-[1,3,4]oxadiazol-2-yl]-benzamide]"
8,51 to 54,"CN(C)CCCCCOc1ccc(-c2nnc(CSCCOc3ccccc3)o2)cc1 [Example 69, dimethyl-(5-{4-[5-(2-phenoxy-ethylsulfanylmethyl)-[1,3,4]oxadiazol-2-yl]-phenoxy}-pentyl)-amine]"
9,80 to 90,"c1ccc(OCCSCc2nnc(-c3ccc(OCc4ccncc4)cc3)o2)cc1 [Example 98, 4-{4-[5-(2-phenoxy-ethylsulfanylmethyl)-[1,3,4]oxadiazol-2-yl]-phenoxymethyl}-pyridine]"
10,146 to 147,"CN1CCN(c2ccc(-c3nnc(CSCCOc4ccccc4)o3)cn2)CC1.O=C(O)/C=C\C(=O)O [Example 293, 1-methyl-4-{5-[5-(2-phenoxy-ethylsulfanylmethyl)-[1,3,4]oxadiazol-2-yl]-pyridin-2-yl}-piperazine; maleic acid salt]"
11,71 to 78,"CN(C)CCCCNC(=O)c1ccc(-c2nnc(CSCCOc3ccccc3)o2)cc1 [Example 55, N-(4-dimethylaminobutyl)-4-[5-(2-phenoxyethylsulfanylmethyl)-[1,3,4]oxadiazol-2-yl]-benzamide]"
12,88 to 92,"CN(C)CCCOc1ccc(-c2nnc(CSCCOc3ccccc3)n2Cc2ccccc2)cc1.O=C(O)C(=O)O [Example 246, (3-{4-[4-benzyl-5-(2-phenoxyethylsulfanylmethyl)-4H-[1,2,4]triazol-3-yl]-phenoxy}-propyl)-dimethyl-amine, oxalic acid salt]"
13,136 to 139,"CN(C)CCCNC(=S)Nc1ccc(-c2nnc(CSCCOc3ccccc3)o2)cc1 [Example 118, 1-(3-dimethylamino-propyl)-3-{4-[5-(2-phenoxy-ethylsulfanylmethyl)-[1,3,4]oxadiazol-2-yl]-phenyl}-thiourea]"
14,116 to 118,"CN(C)CCCOc1ccc(-c2nnc(CCOCCOc3ccccc3)o2)cc1 (as salt: oxalate) [Example 215, Dimethyl-[3-(4-{5-[2-(2-phenxoyethoxy)ethyl]-[1,3,4]oxadiazol-2-yl}phenoxy)propyl]amine]"
15,64,"CN(C)CCNC(=O)c1cccc(-c2nnc(CSCCOc3ccccc3)o2)c1 [Example 60, N-(2-Dimethylamino-ethyl)3-[5-(2-phenoxy-ethylsulfanylmethyl)-[1,3,4]oxadiazol-2-yl]-benzamide]"
16,115,"c1ccc(OCCSCc2nnc(-c3ccc(OCc4ccccn4)cc3)o2)cc1 [Example 99, 2-{4-[5-(2-phenoxy-ethylsulfanylmethyl)-[1,3,4]oxadiazol-2-yl]-phenoxymethyl}-pyridine]"
17,97 to 98,"CN(C)CCNc1ccc(-c2nnc(CSCCOc3ccccc3)o2)cn1 [Example 258, N,N-dimethyl-M-{5-[5-(2-phenoxy-ethylsulfanylmethyl)-[1,3,4]oxadiazol-2-yl]-pyridin-2-yl}-ethane-1,2-diamine]"
18,155 to 158,"CN(C)CCNC(=S)Nc1ccc(-c2nnc(CSCCOc3ccccc3)o2)cc1 [Example 117, 1-(2-dimethylamino-ethyl)-3-{4-[5-(2-phenoxy-ethylsulfanylmethyl)-[1,3,4]oxadiazol-2-yl]-phenyl}-thiourea]"
19,103 to 104,"COc1cc(-c2nnc(CSCCOc3ccccc3)o2)cc(OC)c1OCCCN(C)C.O=C(O)/C=C\C(=O)O [Example 285, (3-{2,6-dimethoxy-4-[5-(2-phenoxy-ethylsulfanylmethyl)-[1,3,4]oxadiazol-2-yl]-phenoxy}-propyl)-dimethyl-amine; maleic acid salt]"
20,130 to 132,"CN(C)CCCOc1ccc(-c2nnc(-c3ccc(-c4ccccc4)cc3)o2)cc1 [Example 58, {3-[4-(5-biphenyl-4-yl-[1,3,4]oxadiazol-2-yl)-phenoxy]-propyl}-dimethylamine]"
21,62 to 63,"CN(C)CCCCOc1ccc(-c2nnc(CSCCOc3ccccc3)o2)cc1 [Example 68, dimethyl-(4-{4-[5-(2-phenoxy-ethylsulfanylmethyl)-[1,3,4]oxadiazol-2-yl]-phenoxy}-butyl)-amine]"
22,85,"c1ccc(OCCSCc2nnc(-c3ccc(OCCCN4CCSCC4)cc3)o2)cc1 [Example 82, 4-(3-{4-[5-(2-phenoxy-ethylsulfanylmethyl)-[1,3,4]oxadiazol-2-yl]-phenoxy}-propyl)-thiomorpholine]"
23,95,"CN(C)CCCOc1ccc(-c2nnc(-c3ccc(Oc4ccccc4)cc3)o2)cc1 [Example 248, Dimethyl-(3-{4-[5-(4-phenoxy-phenyl)-[1,3,4]oxadiazol-2-yl]-phenoxy}-propyl)-amine]"
24,131 to 133,"CN(C)CCCOc1ccc(-c2nnc(CSCCCOc3ccccc3)o2)cc1.O=C(O)C(=O)O [Example 49, dimethyl-(3-{4-[5-(3-phenoxypropylsulfanylmethyl)-[1,3,4]oxadiazol-2-yl]-phenoxy}-propyl)-amine, oxalic acid salt]"
25,70,"c1ccc(OCCSCc2nnc(-c3ccc(OCCN4CCCCC4)cc3)o2)cc1 [Example 72, 1-(2-{4-[5-(2-phenoxy-ethylsulfanylmethyl)-[1,3,4]oxadiazol-2-yl]-phenoxy}-ethyl)-piperidine]"
26,84 to 87,O=C(NCCN1CCCCC1)Nc1ccc(-c2cnc(CSCCOc3ccccc3)o2)cc1 [Example 252]

# Source: patent publication US7229987B2, “Multicyclic compounds for use as melanin concentrating hormone antagonists in the treatment of obesity and diabetes” (Eli Lilly and Company, priority 2002, dated 2007)
